Earlier results on three compounds are cited in patent US8137922B2, “Method for diagnosing the metabolic syndrome (MS)” (Hans Dieplinger, priority 2007, dated 2012).

pKd: −log10 of the molar value. Like-named read-outs stand apart in the source and are kept apart here.

For the data set, the target named is T1, afamin (Homo sapiens, UniProt P43652).
T1 sequence (P43652 22-599): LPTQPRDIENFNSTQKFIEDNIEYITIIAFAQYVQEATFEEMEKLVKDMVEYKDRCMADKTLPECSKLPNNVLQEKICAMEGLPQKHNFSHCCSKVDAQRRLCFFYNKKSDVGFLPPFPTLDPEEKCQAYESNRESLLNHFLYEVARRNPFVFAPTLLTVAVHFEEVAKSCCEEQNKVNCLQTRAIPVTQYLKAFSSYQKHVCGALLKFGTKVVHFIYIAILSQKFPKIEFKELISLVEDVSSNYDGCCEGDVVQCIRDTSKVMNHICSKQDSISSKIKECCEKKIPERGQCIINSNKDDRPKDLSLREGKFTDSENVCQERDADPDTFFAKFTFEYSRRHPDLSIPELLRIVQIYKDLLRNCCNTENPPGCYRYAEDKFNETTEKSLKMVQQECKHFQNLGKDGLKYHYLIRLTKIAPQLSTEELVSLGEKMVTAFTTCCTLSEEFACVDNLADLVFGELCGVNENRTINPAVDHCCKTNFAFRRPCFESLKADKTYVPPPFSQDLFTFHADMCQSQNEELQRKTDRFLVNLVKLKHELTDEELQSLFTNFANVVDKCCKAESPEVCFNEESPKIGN
Conditions: for maximum displacement of tocopherol: 2 μM afamin, 60 μM alpha-[14C]tocopherol, 100-fold excess of non-labeled competitor.

Turning to vitamin E, the Hill coefficient (as a rule, the slope factor of the fitted curve) (calculated, indicates that afamin could bind pairs of tocopherol) was 1.8. Moreover, the pKd was 5.20 (first of two binding sites, read-out: KD1, affinity of afamin for vitamin E) and 4.66 (second of two binding sites, read-out: KD2, affinity of afamin for vitamin E). For the setting “when both sites are activated”, the “maximal binding (Bmax)” value is 18 molecules of Vitamin E.
In the case of `Cc1c(O)cc2c(c1C)O[C@](C)(CCC[C@H](C)CCC[C@H](C)CCCC(C)C)CC2` [gamma-tocopherol], the “maximum displacement of tocopherol” value is given as 80%.
Consider `Cc1c(C)c2c(c(C)c1O)CC[C@@](C)(CCC[C@H](C)CCC[C@H](C)CCCC(C)C)O2` [alpha-tocopherol], for which the “maximum displacement of tocopherol” value is 80%.
